Data: US8987284B2, “Phosphorus containing quinazoline compounds and methods of use” (Newgen Therapeutics, Inc., priority 2009, dated 2015)

Key:
EGFR kinase = target: T1, EGFR kinase (Homo sapiens, UniProt P00533); experiment: Kinase assay for EGFR (TR-FRET LanthaScreen); assay type: biochemical; conditions: % inhibition at 100 nM or IC50 (nM)
T1 construct: purchased Invitrogen PV3872
Description: The extent to which the compounds of the present invention modulate EGFR kinase activity can be determined using time-resolved Fret (TR-FRET) assay (LanthaScreen® kinase activity assay, from Invitrogen). The assay employs EGFR kinase (PV3872, Invitrogen), Tb-Py20 antibody (PV3552, Invitrogen) and fluorescein-poly GT (PV3610, In vitrogen)
The assay is performed in a Black 384-well plate (available from Corning). EGFR kinase (is diluted in TR-FRET Dilution Buffer (PV3189, InVitrogen) at concentration of 0.4 ug/ml as stock solution, and then 2-fold serial diluted. Addition of 1 mM ATP initiated the reaction, and the reaction is incubated for 1 h reaction at room temperature. 10 μL of the Tb-antibody (from Invitrogen)+EDTA (from Invitrogen) solution prepared was added to each well of the assay plate and mix briefly, and incubated for 30 min. The signal is monitored by using M5 microplate reader (Ex=332 nm, Em=488 nm and 518 nm). Each compound is tested in duplicate wells. EGFR without compound is used as control. Staurosporine (available from Sigma) is used as positive control compound. Inhibition was calculated as percentage of the EGFR activity (without compound)

BT474 cells = experiment: Cell proliferation inhibition assay for BT474 (CCK-8); assay type: cell-based; conditions: Homo sapiens, BT-474; 72 h, 8 points
Description: Human breast cancer BT474 cells was cultured in low glucose DMEM (Life Technologies 12320-032) containing 10% fetal bovine serum (FBS) at 37° C. in a humidified 10% CO2, 90% air incubator. Cells were harvested using trypsin/EDTA, counted using a haemocytometer, and plated 10000 cell/well in a 96-well clear tissue culture plate. The cells were incubated for 24 h at 37° C. to allow adherence. A serials of concentrations of each compound (ranging from 30 uM to […], 5-fold dilution) in 96-well plate, and incubated for 72 h. Each concentration was tested in triplicate wells. During the cell proliferation assay, BT474 cells were cultured in low-glucose DMEM containing 5% FBS, 50 ug/ml gentamicin, and 0.3% v/v DMSO. The culture medium was removed via aspiration, and the cell viability was detected by using CCK-8 cell proliferation kit.

T1 sequence (P00533 25-1210): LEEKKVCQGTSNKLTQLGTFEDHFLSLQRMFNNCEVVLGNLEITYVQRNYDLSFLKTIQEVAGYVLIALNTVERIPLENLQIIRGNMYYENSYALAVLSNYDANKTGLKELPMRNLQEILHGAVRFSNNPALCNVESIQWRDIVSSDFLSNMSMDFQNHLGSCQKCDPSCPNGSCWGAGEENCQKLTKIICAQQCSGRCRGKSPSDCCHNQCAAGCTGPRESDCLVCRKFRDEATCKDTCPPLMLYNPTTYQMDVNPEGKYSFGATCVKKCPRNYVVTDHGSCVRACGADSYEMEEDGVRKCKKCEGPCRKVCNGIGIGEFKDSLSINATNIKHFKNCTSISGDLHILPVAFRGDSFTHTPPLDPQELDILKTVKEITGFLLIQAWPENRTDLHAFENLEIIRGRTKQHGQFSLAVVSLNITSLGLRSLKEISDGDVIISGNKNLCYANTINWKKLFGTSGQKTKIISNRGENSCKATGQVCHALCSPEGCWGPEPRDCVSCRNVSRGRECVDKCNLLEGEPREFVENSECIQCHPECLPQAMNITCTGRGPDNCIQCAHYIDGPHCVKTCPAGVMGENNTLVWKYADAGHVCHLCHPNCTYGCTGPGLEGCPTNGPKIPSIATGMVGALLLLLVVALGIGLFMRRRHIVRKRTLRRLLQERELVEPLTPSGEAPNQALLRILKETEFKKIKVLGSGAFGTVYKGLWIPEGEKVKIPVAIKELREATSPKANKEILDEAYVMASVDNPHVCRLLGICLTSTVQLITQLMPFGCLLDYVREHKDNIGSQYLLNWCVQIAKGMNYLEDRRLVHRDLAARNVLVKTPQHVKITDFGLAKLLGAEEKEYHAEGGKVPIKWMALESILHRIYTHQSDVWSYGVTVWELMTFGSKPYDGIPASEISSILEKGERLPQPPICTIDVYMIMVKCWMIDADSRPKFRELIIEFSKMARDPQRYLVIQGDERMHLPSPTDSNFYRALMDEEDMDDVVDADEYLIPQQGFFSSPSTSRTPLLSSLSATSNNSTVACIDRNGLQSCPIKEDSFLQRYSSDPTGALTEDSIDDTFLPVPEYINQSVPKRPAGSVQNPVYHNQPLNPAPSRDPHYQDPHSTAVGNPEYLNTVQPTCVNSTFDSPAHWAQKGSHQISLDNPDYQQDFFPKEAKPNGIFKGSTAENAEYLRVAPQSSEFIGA

SMILES	EGFR inhibition inhibit % at 100 nM or IC50 (nM) (EGFR kinase)	IC50 (BT474 cells)
CP1(=O)CCN(Cc2ccc(-c3ccc4ncnc(Nc5ccc(OCc6cccc(F)c6)c(Cl)c5)c4c3)o2)CC1 [Example 1, N-(3-chloro-4-(3-fluorobenzyloxy)phenyl)-6-(5-((4-methyl-1,4-azaphosphino-1-yl)methyl)furan-2-yl)quinazolin-4-amine]	++ (>50% inhibition at 100 nM, or IC50 <100 nM for EGFR or ErbB2 kinases)	< 100 nM
CP(C)(=O)CCNCc1ccc(-c2ccc3ncnc(Nc4ccc(OCc5cccc(F)c5)c(Cl)c4)c3c2)o1 [Example 2, 6-(5-((2-(dimethylphosphino)ethylaminoyl)methyl)furan-2-yl)-N-(4-(3-fluorobenzyloxy)-3-chlorophenyl)quinazolin-4-amine]	++ (>50% inhibition at 100 nM, or IC50 <100 nM for EGFR or ErbB2 kinases)	< 100 nM
CP(C)(=O)CNCc1ccc(-c2ccc3ncnc(Nc4ccc(OCc5cccc(F)c5)c(Cl)c4)c3c2)o1 [Example 3, 6-(5-(((dimethylphosphinoyl)methylamino)methyl)furan-2-yl)-N-(4-(3-fluorobenzyloxy)-3-chlorophenyl)quinazolin-4-amine]	++ (>50% inhibition at 100 nM, or IC50 <100 nM for EGFR or ErbB2 kinases)	100 to 1000 nM
CP1(=O)CCN(CCCc2ccc3ncnc(Nc4ccc(OCc5cccc(F)c5)c(Cl)c4)c3c2)CC1 [Example 5, N-(3-chloro-4-(3-fluorobenzyloxy)phenyl)-6-(3-(4-methyl-1,4-azaphosphino-1-yl)propyl)quinazolin-4-amine]	++ (>50% inhibition at 100 nM, or IC50 <100 nM for EGFR or ErbB2 kinases)	–
COP(=O)(CCNCc1ccc(-c2ccc3ncnc(Nc4ccc(OCc5cccc(F)c5)c(Cl)c4)c3c2)o1)OC [Example 6, dimethyl 2-((5-(4-(3-chloro-4-(3-fluorobenzyloxy)phenylamino)quinazolin-6-yl)furan-2-yl)methylamino)ethylphosphonate]	++ (>50% inhibition at 100 nM, or IC50 <100 nM for EGFR or ErbB2 kinases)	–
CC1(C)COP(=O)(CCNCc2ccc(-c3ccc4ncnc(Nc5ccc(OCc6cccc(F)c6)c(Cl)c5)c4c3)o2)OC1 [Example 7, N-(3-chloro-4-(3-fluorobenzyloxy)phenyl)-6-(5-((2-(5,5-dimethyl-1,3,2-dioxaphosphino-2-yl)ethylamino)methyl)furan-2-yl)quinazolin-4-amine]	++ (>50% inhibition at 100 nM, or IC50 <100 nM for EGFR or ErbB2 kinases)	–
CP1(=O)CCN(Cc2ccc(-c3ccc4ncnc(Nc5ccc(OCc6ccccn6)c(Cl)c5)c4c3)o2)CC1 [Example 8, N-(3-chloro-4-(pyridin-2-ylmethoxy)phenyl)-6-(5-((4-methyl-1,4-azaphosphino-1-yl)methyl)furan-2-yl)quinazolin-4-amine]	++ (>50% inhibition at 100 nM, or IC50 <100 nM for EGFR or ErbB2 kinases)	< 100 nM
Cc1cccc(COc2ccc(Nc3ncnc4ccc(-c5ccc(CN6CCP(C)(=O)CC6)o5)cc34)cc2Cl)n1 [Example 9, N-(3-chloro-4-((6-methylpyridin-2-yl)methoxy)phenyl)-6-(5-((4-methyl-1,4-azaphosphino-1-yl)methyl)furan-2-yl)quinazolin-4-amine]	+ (between 20% to 50% inhibition at 100 nM, or IC50 between 100 and 1000 nM)	100 to 1000 nM
CP(C)(=O)CCNCC#Cc1ccc2ncnc(Nc3ccc(OCc4cccc(F)c4)c(Cl)c3)c2c1 [Example 10, 6-(3-(2-(dimethylphosphinoyl)ethylamino)prop-1-ynyl)-N-(4-(3-fluorobenzyloxy)-3-chlorophenyl)quinazolin-4-amine]	++ (>50% inhibition at 100 nM, or IC50 <100 nM for EGFR or ErbB2 kinases)	–
CP1(=O)CCN(C/C=C/c2ccc3ncnc(Nc4ccc(OCc5cccc(F)c5)c(Cl)c4)c3c2)CC1 [Example 11, N-(4-(3-fluorobenzyloxy)-3-chlorophenyl)-6-((E)-3-(4-methyl-1,4-azaphosphino-1-yl)prop-1-enyl)quinazolin-4-amine]	++ (>50% inhibition at 100 nM, or IC50 <100 nM for EGFR or ErbB2 kinases)	–
Cc1ccc(Oc2ccc(Nc3ncnc4ccc(-c5ccc(CN6CCP(C)(=O)CC6)o5)cc34)cc2C)cn1 [Example 12]	++ (>50% inhibition at 100 nM, or IC50 <100 nM for EGFR or ErbB2 kinases)	–
CP(C)(=O)CN1CCN(Cc2ccc(-c3ccc4ncnc(Nc5ccc(OCc6cccc(F)c6)c(Cl)c5)c4c3)o2)CC1 [Example 13, N-(4-(3-fluorobenzyloxy)-3-chlorophenyl)-6-(5-((4-((dimethylphosphinoyl)-methyl)piperazin-1-yl)methyl)furan-2-yl)quinazolin-4-amine]	++ (>50% inhibition at 100 nM, or IC50 <100 nM for EGFR or ErbB2 kinases)	100 to 1000 nM
CP1(=O)CCN(Cc2ccc(-c3ccc4ncnc(Nc5ccc(OCc6cccc(F)c6)c(Br)c5)c4c3)o2)CC1 [Example 14, N-(4-(3-fluorobenzyloxy)-3-bromophenyl)-6-(5-((4-methyl-1,4-azaphosphino-1-yl)methyl)furan-2-yl)quinazolin-4-amine]	++ (>50% inhibition at 100 nM, or IC50 <100 nM for EGFR or ErbB2 kinases)	–
CP1(=O)CCN(Cc2ccc(-c3ccc4ncnc(Nc5ccc(OCc6cccc[n+]6[O-])c(Cl)c5)c4c3)o2)CC1 [Example 15, 2-((2-chloro-4-(6-(5-((4-methyl-1,4-azaphosphino-1-yl)methyl)furan-2-yl)quinazolin-4-ylamino)phenoxy)methyl)pyridine 1-oxide]	++ (>50% inhibition at 100 nM, or IC50 <100 nM for EGFR or ErbB2 kinases)	< 100 nM
CP1(=O)CCN(Cc2ccc(-c3ccc4ncnc(Nc5ccc6c(cnn6Cc6cccc(F)c6)c5)c4c3)o2)CC1 [Example 16, N-(1-(3-fluorobenzyl)-1H-indazol-5-yl)-6-(5-((4-methyl-1,4-azaphosphino-1-yl)methyl)furan-2-yl)quinazolin-4-amine]	++ (>50% inhibition at 100 nM, or IC50 <100 nM for EGFR or ErbB2 kinases)	–
CCOP1(=O)CCN(Cc2ccc(-c3ccc4ncnc(Nc5ccc(OCc6cccc(F)c6)c(Cl)c5)c4c3)o2)CC1 [Example 17, N-(3-chloro-4-(3-fluorobenzyloxy)phenyl)-6-(5-((4-ethoxy-1,4-azaphosphino-1-yl)methyl)furan-2-yl)quinazolin-4-amine]	++ (>50% inhibition at 100 nM, or IC50 <100 nM for EGFR or ErbB2 kinases)	< 100 nM
C[C@@H](Nc1ncnc2ccc(-c3ccc(CN4CCP(C)(=O)CC4)o3)cc12)c1ccccc1 [Example 18, (R)-6-(5-((4-methyl-1,4-azaphosphino-1-yl)methyl)furan-2-yl)-N-(1-phenylethyl)quinazolin-4-amine]	++ (>50% inhibition at 100 nM, or IC50 <100 nM for EGFR or ErbB2 kinases)	–
CP1(=O)CCN(Cc2ccc(-c3ccc4ncnc(Nc5cccc(Cl)c5F)c4c3)o2)CC1 [Example 19, N-(3-chloro-2-fluorophenyl)-6-(5-((4-methyl-1,4-azaphosphino-1-yl)methyl)furan-2-yl)quinazolin-4-amine]	++ (>50% inhibition at 100 nM, or IC50 <100 nM for EGFR or ErbB2 kinases)	–
CP1(=O)CCN(Cc2ccc(-c3ccc4ncnc(Nc5ccc(Br)cc5F)c4c3)o2)CC1 [Example 20, N-(4-Bromo-2-fluorophenyl)-6-(5-((4-methyl-1,4-azaphosphino-1-yl)methyl)furan-2-yl)quinazolin-4-amine]	+ (between 20% to 50% inhibition at 100 nM, or IC50 between 100 and 1000 nM)	–
CP1(=O)CCN(Cc2ccc(-c3ccc4ncnc(Nc5ccc(Br)c(Cl)c5F)c4c3)o2)CC1 [Example 21, N-(4-Bromo-3-chloro-2-fluorophenyl)-6-(5-((4-methyl-1,4-azaphosphino-1-yl)methyl)furan-2-yl)quinazolin-4-amine]	++ (>50% inhibition at 100 nM, or IC50 <100 nM for EGFR or ErbB2 kinases)	–
CP1(=O)CCN(Cc2ccc(-c3ccc4ncnc(Nc5ccc(OCc6cnccn6)c(Cl)c5)c4c3)o2)CC1 [Example 22, N-(3-chloro-4-(pyrazin-2-ylmethoxy)phenyl)-6-(5-((4-methyl-1,4-azaphosphino-1-yl)methyl)furan-2-yl)quinazolin-4-amine]	++ (>50% inhibition at 100 nM, or IC50 <100 nM for EGFR or ErbB2 kinases)	–
